Like-named read-outs stand apart in the source and are kept apart here.
What was measured:
LTB4 formation = assay: Leukotriene B4 ELISA in A549 cells; assay type: cell-based; conditions: for activity at 10 µg/mL / activity at 100 µg/mL: Homo sapiens, A549; for activity at 10 µg/mL / activity at 100 µg/mL / LTB4 / LTB4 % of control: Table 2B; for activity at 10 µg/mL / activity at 100 µg/mL / LTB4 % of control: control 100 ± 1 pg ml^−1; for LTB4: control 100 ± 1, mean ± S.D., n=3; for inhibition of LTB4 formation: at 10 μg ml^−1 or 100 μg ml^−1
Protocol: The A549 cell line was grown in Dulbecco's Modified Eagle Medium (DMEM) also supplemented with 10% heat inactivated fetal bovine serum and penicillin-streptomycin. […] The media was changed twice a week.
PGE2 was measured by enzyme enzyme-linked immunosorbent assay (ELISA) (Cayman Chemical, Ann Arbor, Mich.). (1) or (2) was dissolved in DMSO at a concentration of 10 mg ml^−1 for the in vitro experiments. A549 cells in 24 well plates were treated with the compound for 30 min., then arachidonic acid (20 μg ml^−1) was added at 37° C. for 5 min. The samples were frozen at −80° C. until assayed for PGE2. A 100 μl sample was added to EIA buffer (900 μl). Diluted sample (25 μl) was then added to a 96 well plate. The samples were incubated overnight at 4° C. The plate was then washed 5 times ([…]) and […] was added. The absorbance at 450 nm was determined in an ELISA reader. Tables 1A-1B show the mean value±S.D. of 3 determinations. Percents were obtained using the formula: %: sample pg/ml/control pg/ml×100.
Several recent modified NSAIDs target both prostaglandin as well as leukotriene (Martel-Pelletier et al., Ann. Rheum. Dis., 62:501-09 (2003)). Since nitroxides inhibit lipoxygenase (Rachmilewitz et al., Gut, 35: 1181-88 (1994)), the inhibition of LTB4 in A549 cells by these compounds was evaluated. Leukotriene B4 from A549 cells treated as described above was examined using an ELISA assay kit (Cayman Chemical, Ann Arbor, Mich.; Cat No. 520111) according to the manufacturer's instructions. Tables 2A-2B show the mean value±S.D. of 3 determinations. Percents were obtained using the formula: %: sample pg/ml/control pg/ml×100.

PGE2 production = assay: PGE2 ELISA in A549 cells stimulated with arachidonic acid; assay type: cell-based; conditions: Table 1B; for activity at 10 µg/mL / activity at 100 µg/mL: Homo sapiens, A549, read-out: PGE-2 % of control; for activity at 10 µg/mL / activity at 100 µg/mL / PGE-2 % of control: control 42 ± 3 pg ml^−1; for PGE-2: control 42 ± 3, mean ± S.D., n=3
Protocol: PGE2 was measured by enzyme enzyme-linked immunosorbent assay (ELISA) (Cayman Chemical, Ann Arbor, Mich.). […] A549 cells in 24 well plates were treated with the compound for 30 min., then arachidonic acid (20 μg ml^−1) was added at 37° C. for 5 min. The samples were frozen at −80° C. until assayed for PGE2. A 100 μl sample was added to EIA buffer (900 μl). Diluted sample (25 μl) was then added to a 96 well plate. The samples were incubated overnight at 4° C. The plate was then washed 5 times (200 μA) and Edman's reagent was added. The absorbance at 450 nm was determined in an ELISA reader. […] Percents were obtained using the formula: %: sample pg/ml/control pg/ml×100.

[1] = Maximum tolerated dose, IP injection; assay type: in vivo; conditions: nude mice, monitored up to 24 h, death as end point; for MTD at 24 h: female, athymic nude, mouse, in vivo
Protocol: All animal experiments were carried out in compliance with the Guide for the Care and Use of Laboratory Animal Resources (National Research Council, 1996) and were approved by the National Cancer Institute Animal Care and Use Committee. Female athymic nude mice were supplied at 6 weeks of age by the Frederick Cancer Research Center and were housed five per cage in a climate-controlled environment. […] Each animal was weighed individually on the same day as the intraperitoneal (IP) injection. Different dosages were used to determine the maximum tolerated dose to be given to the animals. Each animal was monitored for up to 24 h and death was the end point of the experiment.

[2] = Carrageenan-induced foot paw edema model; assay type: in vivo; conditions: dose decreasing the inflammatory response by 50%, n = 4
Protocol: The in vivo anti-inflammatory activity was evaluated using the carrageenan-induced foot paw edema model reported previously (Winter et al. Proc. Soc. Exp. Biol. Med., 111: 544-47 (1962)).

[3] = Superoxide scavenging: ferricytochrome c reduction, hypoxanthine/xanthine oxidase; assay type: biochemical; conditions: PBS pH 7.4, 25° C., cyt c 60 μM; read-out: IC50, reduction rate of ferricytochrome c (superoxide scavenging)
Protocol: Superoxide was generated from the reaction of hypoxanthine (500 μM) with xanthine oxidase (10 mU) in PBS (pH 7.4, 25° C.) containing the metal chelator diethylenetriaminepentaacetic acid (DTPA, 50 μM). The rate of superoxide formation was assessed by ferricytochrome c (cyt c) (60 μM) reduction (550 nm, ε=21,000 M^−1 cm^−1), as previously described (Wasserman et al., Biochim. Biophys. Acta, 623: 457-60 (1980)). Different drug doses (5-100 μM) were used to scavenge superoxide by the modified nitroxide-NSAIDs.

[4] = Cyclic voltammetry (oxidation potential); assay type: physicochemical
Protocol: Nitroxides undergo one electron reduction and oxidation, which provides their antioxidant characteristics. Cyclic Voltammetry (CV) measurements of the nitroxide-NSAIDs were taken with an EG Potensiostat/Galvanostat Model 273A, from AMETEK Princeton Applied Research (Oak Ridge, Tenn.). Measurements were performed at room temperature in PBS or 50% organic solvents, using the platinum auxiliary electrode and Ag/AgCl (saturated KCl) reference electrode.

[5] = Krishna et al. 1992, cited from earlier work; for oxidation potential Eox: vs. NHE
[6] = previous reports at pH 7.4; cited from earlier work
[7] = Hahn et al. 1992; cited from earlier work

What does the source list for CC(=O)Oc1ccccc1C(=O)O [ASA, acetyl salicylic acid]?
activity at 10 µg/mL (LTB4 formation; dose 10 μg ml^−1): 64%; activity at 100 µg/mL (LTB4 formation; dose 100 μg ml^−1): 62%; LTB4 (LTB4 formation; dose 10 μg ml^−1): (64 ± 13) pg ml^−1; LTB4 (LTB4 formation; dose 100 μg ml^−1): (62 ± 5) pg ml^−1; inhibition of LTB4 formation (LTB4 formation): no inhibition was observed; activity at 10 µg/mL (PGE2 production; dose 10 μg ml^−1): 107%; activity at 100 µg/mL (PGE2 production; dose 100 μg ml^−1): 23%; PGE-2 (PGE2 production; dose 10 μg ml^−1): (45 ± 7) pg ml^−1; PGE-2 (PGE2 production; dose 100 μg ml^−1): (10 ± 2) pg ml^−1; MTD at 24 h [1]: 100 mg/kg

What does the source list for COc1ccc2c(c1)c(CC(=O)O)c(C)n2C(=O)c1ccc(Cl)cc1 [IND, indomethacin]?
Anti-inflammatory ED50 [2]: 4.2 mg/kg; activity at 10 µg/mL (LTB4 formation; dose 10 μg ml^−1): 100%; activity at 100 µg/mL (LTB4 formation; dose 100 μg ml^−1): 82%; LTB4 (LTB4 formation; dose 10 μg ml^−1): (100 ± 10) pg ml^−1; LTB4 (LTB4 formation; dose 100 μg ml^−1): (82 ± 9) pg ml^−1; inhibition of LTB4 formation (LTB4 formation): no inhibition was observed; activity at 10 µg/mL (PGE2 production; dose 10 μg ml^−1): 50%; activity at 100 µg/mL (PGE2 production; dose 100 μg ml^−1): 12%; PGE-2 (PGE2 production; dose 10 μg ml^−1): (21 ± 3) pg ml^−1; PGE-2 (PGE2 production; dose 100 μg ml^−1): (5 ± 1) pg ml^−1; MTD at 24 h [1]: 5 mg/kg

What does the source list for CC1(C)CCCC(C)(C)N1[O] [TEMPO, 2,2,6,6-Tetramethyl-1-piperidinyloxy]?
LTB4 % of control (LTB4 formation; dose 10 μg ml^−1): 100%; LTB4 (LTB4 formation; dose 10 μg ml^−1): (100 ± 2) pg ml^−1; LTB4 % of control (LTB4 formation; dose 100 μg ml^−1): 100%; LTB4 (LTB4 formation; dose 100 μg ml^−1): (100 ± 1) pg ml^−1; inhibition of LTB4 formation (LTB4 formation): no inhibition was observed; PGE-2 % of control (PGE2 production; dose 10 μg ml^−1): 133%; PGE-2 (PGE2 production; dose 10 μg ml^−1): (56 ± 10) pg ml^−1; PGE-2 % of control (PGE2 production; dose 100 μg ml^−1): 123%; PGE-2 (PGE2 production; dose 100 μg ml^−1): (52 ± 8) pg ml^−1; IC50 [3]: ~50 µM; oxidation potential Eox ([4]; in acetonitrile, same conditions, vs. NHE): 1.0 V; Maximum Tolerated Dose (MTD) [1]: 140 mg/kg; E1/2 [5]: 197 mV; oxidation potential Eox [5]: 0.622 V; rate constant with superoxide [6]: 120000 M⁻¹ s⁻¹

What does the source list for CC1(C)CC(O)CC(C)(C)N1[O] [TEMPOL]?
tolerance (maximum tolerated dose) [7]: 275 mg/kg; oxidation potential Eox [5]: 0.810 V; rate constant with superoxide [6]: 65000 M⁻¹ s⁻¹

Which “reversibility of cyclic voltammograph” value [4] does the source give for CC(=O)Oc1ccccc1C(=O)OC1CC(C)(C)N([O])C(C)(C)C1 [compound (1), TEMPO-aspirin] here?
The value was “reversible”.

What about the “oxidation potential Eox” value ([4]; in PBS, versus Ag/AgCl) of the same molecule?
The value was 0.72 V.

What about the oxidation potential Eox ([4]; in PBS, vs NHE) of the same molecule?
Its oxidation potential Eox is 0.83 V.

What does the source list for COc1ccc2c(c1)c(CC(=O)OC1CC(C)(C)N([O])C(C)(C)C1)c(C)n2C(=O)c1ccc(Cl)cc1 [compound (2), TEMPO-indomethacin]?
reversibility of cyclic voltammograph [4]: reversible; oxidation potential Eox ([4]; in acetonitrile (100 mM tetrabutylammonium chloride), versus Ag/AgCl): 1.312 V

From US9012647B2, “Nitroxide modified non-steroidal anti-inflammatory compounds and uses thereof in the treatment and prevention of diseases or disorders” (The United States of America, as Represented by the …, priority 2011, dated 2015)
